Our source for the Km values is publication PMC7818652 (ACS Catalysis, 2020).

Holding throughout (assay): steady-state kinetics, DCIP reduction (spectrophotometric)
What all share (format): biochemical, Neurospora crassa
What all share (details): 2,6-dichloroindophenol as saturating co-substrate; pH 6.0 citrate-phosphate; 30 °C

The test system of one test is T1, CDHBAA.
T1 construct: gene cdhIIA; single fused chain: CYT of NcCDHIIB + linker, DH and CBM1 of NcCDHIIA; expressed in Pichia pastoris KM71H; with Cellobiose dehydrogenase
From the text:
steady-state kinetics, DCIP reduction (spectrophotometric) on CDHBAA

Another test deals with T2, CDHBBA.
T2 construct: gene cdhIIA; single fused chain: CYT and linker of NcCDHIIB + DH and CBM1 of NcCDHIIA; expressed in Pichia pastoris KM71H; with Cellobiose dehydrogenase
An excerpt: steady-state kinetics, DCIP reduction (spectrophotometric) on CDHBBA

The next test concerns T3, CDHABB.
T3 construct: gene cdhIIB; single fused chain: CYT of NcCDHIIA + linker and DH of NcCDHIIB, no CBM1; expressed in Pichia pastoris KM71H; with Cellobiose dehydrogenase
An excerpt:
steady-state kinetics, DCIP reduction (spectrophotometric) on CDHABB

The subject of the next test is T4, CDHAAB.
T4 construct: gene cdhIIB; single fused chain: CYT and linker of NcCDHIIA + DH of NcCDHIIB, no CBM1; expressed in Pichia pastoris KM71H; with Cellobiose dehydrogenase
An excerpt: steady-state kinetics, DCIP reduction (spectrophotometric) on CDHAAB

By Km is commonly meant the substrate concentration at which the rate is half of its maximum. Take `OC[C@H]1O[C@@H](O[C@H]2[C@H](O)[C@@H](O)C(O)O[C@@H]2CO)[C@H](O)[C@@H](O)[C@@H]1O` (stereo partly shown) [cellobiose]: the Km came to 57 ± 6 µM with CDHBAA, 75 ± 5 µM with CDHBBA, 26 ± 3 µM in the test with CDHABB and 46 ± 3 µM in the test with CDHAAB.
